Test results as given in paper PMC5903342 (Oxidative Medicine and Cellular Longevity, 2018).

Legend:
[1] = system: Salmonella enterica serovar typhimurium TA100; experiment: Antimutagenicity assay (Salmonella/microsome), strain TA100 (co-, pre- and posttreatment); type: cell-based
[2] = DPPH free radical scavenging assay; type: biochemical; settings: absorbance at 517 nm
Procedure: The free radical scavenging activity was measured by following microplate procedures as previously described. One hundred microliters of the sample dilutions with five concentration levels (varying from 0 to 2000 μM in DMSO) was added to two identical groups of wells in a 96-well microplate. The same volume of 0.1 mM DPPH-methanol solution was added to each well of one group (samples), and methanol ([…]) was added to the other group (blanks). The control was prepared by mixing the DPPH-methanol solution with the sample solvent or butylated hydroxytoluene (BHT). The solutions were mixed thoroughly, covered, and allowed to react in the dark at room temperature for 40 min. The absorbance was measured at 517 nm using a microplate reader (Quant, BioTek Instruments Inc.), and the scavenging activity was calculated from the absorbance values according to the following equation: […]. The antioxidant properties of the samples were expressed as half the maximal effective concentrations (EC50) obtained by interpolation from the linear regression analysis. BHT was used as the positive control.

[3] = system: Salmonella enterica serovar typhimurium TA1535; experiment: Antimutagenicity assay (Salmonella/microsome), strain TA1535; type: cell-based; settings: TA1535, cotreatment
Source text: Salmonella enterica serovar typhimurium (S. typhimurium) strains TA100, TA1535, TA104, and TA102 from the authors' laboratory stock were used as described by Maron and Ames in the antimutagenicity assay.
We carried out the coexposure protocol of the antimutagenicity assay to investigate the potential of the compound to protect against alkylation-mediated genetic mutation in S. typhimurium TA100, TA102, TA104, and TA1535 strains according to Ajith and Soja. The test proceeded both in the absence and presence of a metabolic activation system (4% S9 mix, Aroclor preinduced, from MOLTOX Inc., USA). DMSO 1% served as the negative control. […] The mixtures were incubated in a shaker at 37°C (preincubation) under light protection. After a total of 60 min of cotreatment, the mixtures were added to and mixed with 2 mL top agar containing 0.05 mmol/L L-histidine and D-biotin for the S. typhimurium strains. Each of these was then spread on a minimal glucose agar (1.5% agar, Vogel-Bonner medium E, containing 2% glucose) plate. After the top agar solidified, the plates were incubated at 37°C for 60–72 h. Each tester strain was assayed in triplicate and repeated at least twice, and the number of revertant colonies was counted for each tester strain and treatment group. The counts of revertant colonies were obtained to build a dose-response curve and calculate the percentage of reduction.

[4] = TA100, cotreatment, +S9, CPA (150 μM), atorvastatin 20 μM
[5] = TA100, cotreatment, +S9, CPA (150 μM), atorvastatin 100 μM
[6] = TA100, cotreatment, +S9, CPA (150 μM), atorvastatin 200 μM
[7] = TA100, cotreatment, +S9, CPA (150 μM), atorvastatin 1000 μM
[8] = TA100, cotreatment, −S9, MMS (100 μM), atorvastatin 20 μM
[9] = TA100, cotreatment, −S9, MMS (100 μM), atorvastatin 100 μM
[10] = TA100, cotreatment, −S9, MMS (100 μM), atorvastatin 200 μM
[11] = TA100, cotreatment, −S9, MMS (100 μM), atorvastatin 1000 μM
[12] = TA100, posttreatment, +S9, CPA (150 μM), atorvastatin 20 μM
[13] = TA100, posttreatment, +S9, CPA (150 μM), atorvastatin 200 μM
[14] = TA100, posttreatment, +S9, CPA (150 μM), atorvastatin 1000 μM
[15] = TA100, posttreatment, −S9, MMS (100 μM), atorvastatin 20 μM
[16] = TA100, posttreatment, −S9, MMS (100 μM), atorvastatin 100 μM
[17] = TA100, posttreatment, −S9, MMS (100 μM), atorvastatin 200 μM
[18] = TA100, posttreatment, −S9, MMS (100 μM), atorvastatin 1000 μM
[19] = TA100, pretreatment, +S9, CPA (150 μM), atorvastatin 20 μM
[20] = TA100, pretreatment, +S9, CPA (150 μM), atorvastatin 100 μM
[21] = TA100, pretreatment, +S9, CPA (150 μM), atorvastatin 200 μM
[22] = TA100, pretreatment, +S9, CPA (150 μM), atorvastatin 1000 μM
[23] = TA100, pretreatment, −S9, MMS (100 μM), atorvastatin 20 μM
[24] = TA100, pretreatment, −S9, MMS (100 μM), atorvastatin 100 μM
[25] = TA100, pretreatment, −S9, MMS (100 μM), atorvastatin 200 μM
[26] = TA100, pretreatment, −S9, MMS (100 μM), atorvastatin 1000 μM
[27] = +S9, CPA (150 μM), atorvastatin 20 μM
[28] = +S9, CPA (150 μM), atorvastatin 100 μM
[29] = +S9, CPA (150 μM), atorvastatin 200 μM
[30] = +S9, CPA (150 μM), atorvastatin 1000 μM
[31] = −S9, MMS (100 μM), atorvastatin 20 μM
[32] = −S9, MMS (100 μM), atorvastatin 100 μM
[33] = −S9, MMS (100 μM), atorvastatin 200 μM
[34] = −S9, MMS (100 μM), atorvastatin 1000 μM

Which “% reduction” value [1, 4] does the source give for CC(C)c1c(C(=O)Nc2ccccc2)c(-c2ccccc2)c(-c2ccc(F)cc2)n1CC[C@@H](O)C[C@@H](O)CC(=O)O [AVA, atorvastatin] here?
Its value is 2.65%.

And the “His+ (revertant colonies)” value [1, 4]?
Its value is 235 ± 22.

What about the “% reduction” value [1, 5] of the same molecule?
Its value is 6.19%.

What about the “His+ (revertant colonies)” value [1, 5] of the same molecule?
Its value is 230 ± 31.

What about the “% reduction” value [1, 6] of the same molecule?
Its value is 11.50%.

And the “His+ (revertant colonies)” value [1, 6]?
Its value is 224 ± 15.

And the “% reduction” value [1, 7]?
The value was 17.70%.

What about the “His+ (revertant colonies)” value [1, 7] of the same molecule?
Its value is 216 ± 25.

What about the “% reduction” value [1, 8] of the same molecule?
The value was 7.14%.

And the “His+ (revertant colonies)” value [1, 8]?
The value was 204 ± 18.

And the “% reduction” value [1, 9]?
The value was 12.5%.

What about the “His+ (revertant colonies)” value [1, 9] of the same molecule?
The value was 198 ± 22.

And the “% reduction” value [1, 10]?
The value was 19.64%.

And the “His+ (revertant colonies)” value [1, 10]?
Its value is 190 ± 13.

And the “% reduction” value [1, 11]?
The value was 23.21%.

And the “His+ (revertant colonies)” value [1, 11]?
The value was 186 ± 14.

And the “Reduction of DNA injuries caused by MMS or CPA” value ([1]; TA100, posttreatment)?
Its value is “not able to reduce”.

What about the “% reduction” value [1, 12] of the same molecule?
Its value is 12.04%.

What about the “His+ (revertant colonies)” value [1, 12] of the same molecule?
The value was 257 ± 5.

And the “% reduction” value ([1]; TA100, posttreatment, +S9, CPA (150 μM), atorvastatin 100 μM)?
The value was 17.44%.

And the “% reduction” value [1, 13]?
Its value is 18.49%.

What about the “His+ (revertant colonies)” value [1, 13] of the same molecule?
Its value is 216 ± 8.

And the “% reduction” value [1, 14]?
The value was 21.48%.

What about the “His+ (revertant colonies)” value [1, 14] of the same molecule?
Its value is 207 ± 23.

And the “% reduction” value [1, 15]?
Its value is 5.69%.

What about the “His+ (revertant colonies)” value [1, 15] of the same molecule?
Its value is 257 ± 26.

What about the “% reduction” value [1, 16] of the same molecule?
Its value is 11.86%.

And the “His+ (revertant colonies)” value [1, 16]?
The value was 248 ± 23.

What about the “% reduction” value [1, 17] of the same molecule?
The value was 20.10%.

And the “His+ (revertant colonies)” value [1, 17]?
Its value is 237 ± 22.

And the “% reduction” value [1, 18]?
Its value is 23.00%.

And the “His+ (revertant colonies)” value [1, 18]?
The value was 233 ± 26.

What about the “% reduction” value [1, 19] of the same molecule?
Its value is 79.4^∗ %.

What about the “His+ (revertant colonies)” value [1, 19] of the same molecule?
Its value is 130 ± 30.

And the “% reduction” value [1, 20]?
Its value is 81.6^∗ %.

What about the “His+ (revertant colonies)” value [1, 20] of the same molecule?
Its value is 127 ± 19.

What about the “% reduction” value [1, 21] of the same molecule?
Its value is 92.59^∗ %.

And the “His+ (revertant colonies)” value [1, 21]?
Its value is 111 ± 9.

And the “% reduction” value [1, 22]?
Its value is 97.92^∗ %.

What about the “His+ (revertant colonies)” value [1, 22] of the same molecule?
Its value is 103 ± 2.

What about the Antimutagenic activity ([1]; TA100, pretreatment, all concentrations, presence and absence of metabolic conditions) of the same molecule?
Its Antimutagenic activity is “exerted antimutagenic activity”.

What about the “% reduction” value [1, 23] of the same molecule?
Its value is 45.97^∗ %.

What about the “His+ (revertant colonies)” value [1, 23] of the same molecule?
The value was 171 ± 14.

And the “% reduction” value [1, 24]?
Its value is 88.57^∗ %.

What about the “His+ (revertant colonies)” value [1, 24] of the same molecule?
Its value is 117 ± 2.

And the “% reduction” value [1, 25]?
Its value is 91.43^∗ %.

What about the “His+ (revertant colonies)” value [1, 25] of the same molecule?
The value was 113 ± 6.

And the “% reduction” value [1, 26]?
Its value is 98.7^∗ %.

What about the “His+ (revertant colonies)” value [1, 26] of the same molecule?
The value was 103 ± 4.

And the EC50 [2]?
The EC50 was 274 ± 3 µM.

What about the “% reduction” value [3, 27] of the same molecule?
Its value is 9.44%.

And the “His+ (revertant colonies)” value [3, 27]?
Its value is 53 ± 3.

What about the “% reduction” value [3, 28] of the same molecule?
Its value is 11.11%.

And the “His+ (revertant colonies)” value [3, 28]?
The value was 52 ± 7.

What about the “% reduction” value [3, 29] of the same molecule?
The value was 30.6%.

And the “His+ (revertant colonies)” value [3, 29]?
Its value is 45 ± 4.

And the “% reduction” value ([3]; +S9, CPA (150 μM), atorvastatin 200 μM, listed as Atorvastatin)?
The value was 30.56^∗ %.

And the “% reduction” value [3, 30]?
Its value is 42.2%.

And the “His+ (revertant colonies)” value [3, 30]?
Its value is 41 ± 8.

And the “% reduction” value ([3]; +S9, CPA (150 μM), atorvastatin 1000 μM, listed as Atorvastatin)?
Its value is 42.22^∗ %.

What about the “% reduction” value [3, 31] of the same molecule?
The value was 45.65^∗ %.

What about the “His+ (revertant colonies)” value [3, 31] of the same molecule?
The value was 50 ± 4.

And the “% reduction” value [3, 32]?
The value was 67.39^∗ %.

And the “His+ (revertant colonies)” value [3, 32]?
The value was 40 ± 5.

What about the “% reduction” value [3, 33] of the same molecule?
Its value is 86.95^∗ %.

What about the “His+ (revertant colonies)” value [3, 33] of the same molecule?
The value was 31 ± 2.

What about the “% reduction” value [3, 34] of the same molecule?
The value was 91.30^∗ %.

And the “His+ (revertant colonies)” value [3, 34]?
Its value is 29 ± 3.
